assay: Human HepG2 cell viability assay in 384 well format; type: toxicity, cell-based; set-up: dose 125 nL, time 70.5 hour; concentration not given beside the values; conditions: HepG2 cells, read-out: Inhibition

Row | SMILES | cytotoxicity at 70.5 h
1 | Cc1nc(Nc2nnc(C)s2)cc(C2CCCN2c2ccncn2)n1 (centres undefined) | -8.94%
2 | Cc1noc(C)c1CN1CCN(Cc2ccncc2)c2ncccc2C1 | -7.22%
3 | c1cncc(COCC2CN(Cc3cccnc3)Cc3ccnn3C2)c1 (centres undefined) | -9.95%
4 | CC(C)(C)c1nnc(CN2CCOC(Cn3cncn3)C2)o1 (centres undefined) | -1.42%
5 | CC(C)NC(=O)[C@@H]1CN(Cc2nccs2)C[C@H]2OCC[C@H]21 | 36%
6 | Cn1cccc1C(=O)COc1ccc(S(N)(=O)=O)cc1 | 0.32%
7 | COCC(=O)N1CCC2(COCc3cnc(NCc4ccco4)nc32)C1 (centres undefined) | -2.26%
8 | O=C(NCCc1ccncc1)[C@@H]1CC[C@@H]2[C@@H](CCN2Cc2ccco2)O1 | -9.71%
9 | COc1ccc(C)cc1CN1CCN(Cc2nccn2C)C(C)C1 (centres undefined) | 7.41%
10 | CSC1(CNC(=O)N(C)Cc2ccc(C)s2)CCOCC1 | 15.5%
11 | CC(C)c1ccc(OCn2ccc(C(=O)N3CCCC3)n2)cc1 | -4.33%
12 | CC(C)CN1CCC(NC(C)c2ccccc2-n2cccn2)CC1 (centres undefined) | -3.22%
13 | Cc1nc(CN(C)Cc2nc(-c3sccc3C)oc2C)no1 | -3%
14 | N#Cc1cccc(S(=O)(=O)Nc2c(F)cccc2N2CCCC2)c1 | -5.48%
15 | CO[C@@H]1CCN(Cc2cccc(C)n2)[C@@H]2CN(Cc3ccncc3)C[C@@H]21 | -1.88%
16 | Cn1cccc1C(=O)NCc1cnc2n1CCN(C(=O)c1ccoc1)C2 | -7.47%
17 | COCCN1CCc2c(c(COc3cccnc3)nn2C)C1 | -8.79%
18 | CC(C)Cc1noc(CN2CCN(S(C)(=O)=O)CC2)n1 | -7.6%
19 | CN(c1ccncn1)C1CC2(CCN(C(=O)c3cncs3)C2)C1 (centres undefined) | -2.06%
20 | Cc1cc(C)n(C2CCN(Cc3nc4ccccc4n3C)CC2)n1 | 1.81%
21 | COCCNC(=O)CSCc1nc(O)c2cc(C(C)C)sc2n1 | -8.44%
22 | Cc1cc(-n2cccn2)ccc1CN1CCOCC(CN(C)C)C1 (centres undefined) | 27.5%
23 | CNC(=O)[C@@H]1C[C@H](N)CN1Cc1cc2cc(OC)ccc2nc1O | -8.56%

Row | SMILES | cytotoxicity at 70.5 h
24 | Cc1ccc2c(c1)CN(CC(=O)NCCc1ccc(F)cc1)CC(C)O2 (centres undefined) | -7.54%
25 | CN(C)C(=O)CO[C@H]1CO[C@@]2(CCN(Cc3ccoc3)C2)C1 | -5.9%
26 | COCc1nc(C(=O)N2CCCCC2Cn2cccn2)cs1 (centres undefined) | -7.2%
27 | COc1ccc(NC(=O)N(C)Cc2ccc(Br)o2)cn1 | -6.19%
28 | CC(c1nc(C2CC2)no1)N1CCN(CCc2ccncc2)CC1 (centres undefined) | -12.6%
29 | CC(=O)NCC1CCN(c2cc(C(C)C)nc3ccnn23)CC1 | -9.59%
30 | COc1cc(CNc2nncs2)cc(OC)c1OC | 12.6%
31 | N#Cc1cc(S(N)(=O)=O)ccc1N1CCN(c2ccccc2)CC1 | 1.86%
32 | c1cc(-c2nc(C3CCN(Cc4ccsc4)CC3)no2)ccn1 | 36.8%
33 | CC1CCCCN1C(=O)COc1nc(Cc2ccc(F)cc2)no1 (centres undefined) | -6.78%
34 | O=C(CCn1cc(Cl)cn1)N1C[C@@H]2CC[C@H](C1)N(Cc1ccccn1)C2 | -11.7%
35 | CN1CCN(Cc2ccccc2Cl)CC12CCC(=O)N(CC1CC1)CC2 (centres undefined) | 0.313%
36 | CCCc1cc(C(=O)N2CCC3(CCCN(CCO)C3=O)C2)cs1 (centres undefined) | -0.486%
37 | Cc1cccc(CN2C(=O)CCC23CCNCC3)n1 | -9.48%
38 | CC1CCN(CCCNC(=O)Nc2cc3c(cc2Br)OCCO3)CC1 | -0.325%
39 | COc1cc(F)c(C(=O)N2C[C@@H](CN(C)CCO)[C@@H](CO)C2)c(F)c1 | -2.86%
40 | O=S(=O)(NCC1(O)CCOc2ccccc21)c1ccccc1F (centres undefined) | -4.25%
41 | Cn1cc(CN2C[C@@H]3OCCN(c4ncccn4)[C@@H]3C2)cn1 | 1.07%
42 | Cc1cc(C2CCCN(C(=O)COc3cc(C)on3)C2)n[nH]1 (centres undefined) | -3.29%
43 | COc1ccccc1C1SCC(=O)Nc2c1c(=O)[nH]n2C1CCCCC1 (centres undefined) | 20.9%
44 | CC(C)Oc1ncccc1CNC(=O)c1ccccn1 | -2.17%
45 | Cc1nc(CCNC(=O)C2CCN(C(C)C)CC2)sc1Cl | -0.288%
46 | Cc1nc(CN(C)C(=O)CN(C)C)nc2c1CCC(=O)N2CCC(C)C | -0.759%

Row | SMILES | cytotoxicity at 70.5 h
47 | Cc1cncc(C(=O)N2CCCCC2c2nc[nH]n2)c1 (centres undefined) | -4.36%
48 | CNC(=O)[C@@]12CCC3(CCNCC3)[C@@H]1CN(S(C)(=O)=O)C2 | 4.08%
49 | N#Cc1nccnc1N1CCN(CCOCc2ccccc2)CC1 | 16.9%
50 | Cc1nc(CSCCC(=O)NCc2cccnc2N(C)C)cs1 | -13.6%
51 | CC1N(CC2CC2)C(=O)COC12CCN(C(=O)c1ccncc1)CC2 (centres undefined) | -1.87%
52 | O=C(O)C1(Cc2ccc(F)cc2)CCCN(Cc2ccncc2)C1 (centres undefined) | 4.55%
53 | Cc1nccn1CCCN1CCCC(c2ccccc2)C1 (centres undefined) | -1.68%
54 | CCOc1ccc(C(=O)N(C)C)cc1NC(=O)c1ccsc1 | -10.6%
55 | COCCN1CCC2(CC1)CN(C(=O)c1ccccc1)CCO2 | -5.3%
56 | CCCc1cc(C(=O)NCCn2nc3ccccn3c2=O)[nH]n1 | -9.65%
57 | Cc1cccc(S(=O)(=O)NCC2CCN(c3cnccn3)CC2)c1 | -10.1%
58 | O=C(CSC1=NS(=O)(=O)c2cc(F)ccc2N1)Nc1ccc(Cl)cc1 | 22.3%
59 | CCCn1cnnc1CNCc1c[nH]nc1-c1ccc(F)cc1 | -1.41%
60 | CC(C)(C)c1noc(CCC(=O)NCC2CCS(=O)(=O)C2)n1 (centres undefined) | 1.1%
61 | Cc1cc(CC(C)NC(=O)c2cccc(CC3CCNCC3)c2)[nH]n1 (centres undefined) | -2.93%
62 | Cc1noc(C)c1CS(=O)(=O)CC(=O)N(C)Cc1cccc(F)c1 | -3.7%
63 | Cc1nc2sccn2c1C(=O)N1CCc2c(nc(N)[nH]c2=O)C1 | -4.21%
64 | O=C(NCCc1cccnc1)NC1CCOC2(CCCCC2)C1 (centres undefined) | 17.8%
65 | COc1ncccc1CNCc1c(C(C)C)nn(C)c1OC | -4.91%
66 | Cc1ccccc1C(C(=O)NCCSC(F)(F)F)N(C)C (centres undefined) | -11.1%
67 | CCc1ccsc1C(=O)N1CCS(=O)(=O)CC1 | -8.8%
68 | O=C(O)c1cc(S(=O)(=O)Nc2cc(F)ccc2F)cc2c1OCCO2 | -3.33%
69 | CCOc1ccc(CNC(=O)N(C)CC(C)(C)O)cc1C | -60%

Row | SMILES | cytotoxicity at 70.5 h
70 | O=C(CCc1cccc(F)c1F)N1CCN(Cc2ccco2)CC1 | -8.06%
71 | O=C(Cc1ccc2c(c1)OCCO2)N1CCCC(n2cccn2)C1 (centres undefined) | -19.6%
72 | CC/C=C(/C)C(=O)N1CSCC1C(=O)N(C)CCc1ccncc1 (centres undefined) | -4.98%
73 | O=C(C1CCC1)N1CCc2onc(Cn3cccn3)c2C1 | 17.9%
74 | CCCc1nc(NCCCn2cccn2)c2c(n1)c(C)nn2CC | -4.19%
75 | Cc1ccc(NC2CCN(C(=O)c3c(C)oc(C)c3C)CC2)nn1 | -10.8%
76 | CC(C)COCC(NC(=O)c1cc[nH]n1)c1ccco1 (centres undefined) | 4.11%
77 | CC(NC(=O)C1CCN(C(=O)C2CC2)CC1)c1nncn1C(C)C (centres undefined) | -4.92%
78 | O=C(NC1CCCC1)N1CCC2(CC1)CC(Oc1cccnc1)CO2 (centres undefined) | 26.9%
79 | Cc1cnn(CC2CCCN2c2ccc(C#N)cn2)c1 (centres undefined) | 6.54%
80 | CCC(C)(C)NC(=O)C1CC(=O)N(CC2CC2)C1 (centres undefined) | 27.7%
81 | CNc1cc2c(nn1)CCN(C(=O)c1coc(Br)c1)C2 | 17.6%
82 | CSCCC1c2nc[nH]c2CCN1Cc1ccccc1C(F)(F)F (centres undefined) | 0.321%
83 | c1coc(-c2noc(CN3CC(n4cccn4)C3)n2)c1 | -7.3%
84 | N#Cc1cccc(C(=O)N2CC(c3nc(-c4cccnc4)no3)C2)c1 | 10%
85 | CC(C)CC(CNC(=O)c1cccnc1Oc1cccnc1)N(C)C (centres undefined) | 8.64%
86 | Cc1ccc(C)c(S(=O)(=O)NCCOc2ccc3nnc(C)n3n2)c1 | 42.7%
87 | Cc1ccc(C(NC(=O)C2CC2)c2cccc(S(C)(=O)=O)c2)cc1 (centres undefined) | -4.47%
88 | O=C(CCc1ccccc1F)N1CCC(Nc2cccnn2)CC1 | -1.09%
89 | CCN1CCC2(COCc3cnc(-c4cccnc4)nc32)C1 (centres undefined) | -13.9%
90 | Cc1cnn(CC2CCCCN2Cc2cc(C)on2)c1 (centres undefined) | -18.5%
91 | Cc1occc1C(=O)N1C[C@@H]2OCCN(CCN3CCCC3)[C@@H]2C1 | -3.12%
92 | CN1CCO[C@@H]2CN(S(=O)(=O)c3ccccc3)CC[C@@H]2C1 | -5%

Row | SMILES | cytotoxicity at 70.5 h
93 | CNCc1cn(C[C@H]2C[C@@H]3CCN2C[C@@H]3C(=O)NC2CCCCC2)nn1 | -5.79%
94 | CCCn1nc2c(cc1=O)CN(Cc1nc(C)c3ccccc3n1)CC2 | -7.04%
95 | Cc1ccc2[nH]c(=O)c(CNCCCN3CCOCC3)cc2c1 | -8.68%
96 | CCc1nncn1CCNC(=O)N1CCCC(Cc2nccn2C)C1 (centres undefined) | 32.8%
97 | O=C(CS(=O)(=O)c1ccc(Cl)cc1)NC1CCCc2ccccc21 (centres undefined) | 1.89%
98 | O=C1CC(C(=O)O)C2(CCN(C(=O)NCc3ccc(Cl)cc3)CC2)N1 (centres undefined) | -2.42%
99 | COc1ccc(C(O)CN2CC(n3cc(C)cn3)C2)cc1 (centres undefined) | -8.25%
100 | CC(C)CN1CC2(CCN(C(=O)C(O)c3ccccc3Cl)CC2)CC1=O (centres undefined) | -5.68%
101 | O=C(CC1CCC2(CC1)CCN(Cc1ccncc1)CC2)N1CCCC1 | 6.54%
102 | O=C1CCC(=O)N1c1nn(Cc2ccc(F)cc2)cc1Cl | 18.7%
103 | O=C(c1cccnc1)N1CC(S(=O)(=O)c2ccc(Cl)cc2)C1 | -10.4%
104 | CC(C)Oc1ccc(CNC(=O)c2cc(C(N)=O)cs2)cc1F | -12.2%
105 | COc1ccccc1-c1c[nH]c(C2CCCN2)n1 (centres undefined) | -7.74%
106 | CC(C)CN1CCC(NCCNc2cccnc2)CC1 | -17.2%
107 | CCn1c(=O)n(CC)c2cc(S(N)(=O)=O)ccc21 | -2.33%
108 | CC1CN(CC(=O)N2CCOCC2)CCN1Cc1nccn1C (centres undefined) | -2.16%
109 | COc1ccc(C(=O)NCCCOC(C)c2ccccc2)c(OC)c1 (centres undefined) | -11.1%
110 | O=C(c1cn(CCN2CCCCC2)nn1)N1CCCCO1 | 11%
111 | c1coc(CN2CCC3(CC2)COC(COCC2CC2)C3)c1 (centres undefined) | 15.1%
112 | COC(=O)c1ccoc1CN(C)CC(=O)N(C)C | -8.41%
113 | Cc1ccccc1C1(C(=O)NCCN(C)C)CCOCC1 | -3.78%
114 | N#Cc1nc(COc2ccc3c(c2)OCO3)oc1NC1CC1 | -28.4%
